{
  "source": "patent US6528543B1",
  "about": "“Urea derivatives” (Hoffman-La Roche Inc., priority 1999, dated 2003)",
  "data": [
    {"units": {"melting point": "°C"}, "values": [
      {"compound": "NC(=O)NC(=O)C(CC1CCCCC1)c1ccc(Cl)c(Cl)c1", "note": "(stereo not shown) [Example 1]", "melting point": "76 to 79"},
      {"compound": "CNC(=O)NC(=O)[C@H](CC1CCCC1)c1ccc(Cl)c(Cl)c1", "note": "[Example 13, 1-[3-cyclopentyl-2(R)-(3,4-dichloro-phenyl)-propionyl]-3-methyl-urea]", "melting point": "124.8 to 127.5"},
      {"compound": "CNC(=O)NC(=O)C(CC1CCCC1)c1ccc(C(F)(F)F)c(F)c1", "note": "(stereo not shown) [Example 32, 1-[3-cyclopentyl-2-(3-fluoro-4-trifluoromethyl-phenyl)-propionyl]-3-methyl-urea]", "melting point": "187 to 189"},
      {"compound": "CCS(=O)(=O)c1ccc(C(CC2CCCC2)C(=O)NC(=O)NC)cc1", "note": "(stereo not shown) [Example 33, 1-[3-cyclopentyl-2-(4-ethanesulfonyl-phenyl)-propionyl]-3-methyl-urea]", "melting point": "200 to 201"},
      {"compound": "CC(O)CNC(=O)NC(=O)C(CC1CCCC1)c1ccc(Cl)c(Cl)c1", "note": "(stereo not shown) [Example 19, 1-[3-cyclopentyl-2-(3,4-dichloro-phenyl)-propionyl]-3-(2-hydroxy-propyl)-urea]", "melting point": "116.7 to 119.9"},
      {"compound": "CNC(=O)NC(=O)C(CC1CCCC1)c1ccc(S(C)(=O)=O)c(C(F)(F)F)c1", "note": "(stereo not shown) [Example 40, 1-[3-cyclopentyl-2-(4-methanesulfonyl-3-trifluoromethyl-phenyl)-propionyl]-3-methyl-urea]", "melting point": "268 to 270"},
      {"compound": "CNC(=O)NC(=O)C(CC1CCCC1)c1ccc(F)c(F)c1", "note": "(stereo not shown) [Example 3, 1-[3-cyclopentyl-2-(3,4-difluoro-phenyl)-propionyl]-3-methyl-urea]", "melting point": "111 to 113"},
      {"compound": "CNC(=O)NC(=O)C(CC1CCCC1)c1ccc([N+](=O)[O-])cc1", "note": "(stereo not shown) [Example 5, 1-[3-cyclopentyl-2-(4-nitro-phenyl)-propionyl]-3-methyl-urea]", "melting point": "179 to 183"},
      {"compound": "CC(C)C[C@@H](C(=O)NC(N)=O)c1ccc(Cl)c(Cl)c1", "note": "[Example 17, R-[2-(3,4-dichloro-phenyl)-4-methyl-pentanoyl]-urea]", "melting point": "138 to 140"},
      {"compound": "CNC(=O)NC(=O)C(CC1CCCC1)c1ccc(S(=O)(=O)C(F)(F)F)cc1", "note": "(stereo not shown) [Example 9, 1-[3-cyclopentyl-2-(4-trifluoromethanesulfonyl-phenyl)-propionyl]-3-methyl urea]", "melting point": "191 to 192"},
      {"compound": "CNC(=O)NC(=O)C(CC1CCCC1)c1cccc(Cl)c1", "note": "(stereo not shown) [Example 2, 1-[2-(3-chloro-phenyl)-3-cyclopentyl-propionyl]-3-methyl-urea]", "melting point": "52 to 55"},
      {"compound": "CNC(=O)NC(=O)C(CC1CCCC1)c1ccc(S(C)(=O)=O)c(S(C)(=O)=O)c1", "note": "(stereo not shown) [Example 37, 1-[2-(3,4-bis-methanesulfonyl-phenyl)-3-cyclopentyl-propionyl]-3-methyl-urea]", "melting point": "220 to 222"},
      {"compound": "CNC(=O)NC(=O)C(CC1CCCC1)c1ccc(S(C)(=O)=O)c(Br)c1", "note": "(stereo not shown) [Example 35, 1-[2-(3-bromo-4-methanesulfonyl-phenyl)-3-cyclopentyl-propionyl]-3-methyl-urea]", "melting point": "259 to 260"},
      {"compound": "CNC(=O)NC(=O)C(CC1CCCC1)c1ccc(S(C)(=O)=O)c([N+](=O)[O-])c1", "note": "(stereo not shown) [Example 14, 1-[3-cyclopentyl-2-(4-methanesulfonyl-3-nitrophenyl)-propionyl]-3-methyl-urea]", "melting point": "241 to 242"},
      {"compound": "CNC(=O)NC(=O)C(CC1CCCC1)c1ccc(Cl)cc1", "note": "(stereo not shown) [Example 4, 1-[2-(4-chloro-phenyl)-3-cyclopentyl-propionyl]-3-methyl-urea]", "melting point": "145 to 147"},
      {"compound": "CNC(=O)NC(=O)C(CC1CCCC1)c1ccc(SC(F)(F)F)cc1", "note": "(stereo not shown) [Example 8, 1-[3-cyclopentyl-2-(4-trifluoromethylsulfanyl-phenyl)-propionyl]-3-methyl urea]", "melting point": "144 to 145"},
      {"compound": "CNC(=O)NC(=O)C(CC1CCCC1)c1ccc(S(C)(=O)=O)c(F)c1", "note": "(stereo not shown) [Example 42, 1-[3-cyclopentyl-2-(3-fluoro4-methanesulfonyl-phenyl)-propionyl]-3-methyl-urea]", "melting point": "199 to 200"},
      {"compound": "CC(C)CC(C(=O)NC(N)=O)c1ccc(Cl)cc1", "note": "(stereo not shown) [Example 16, [2-(4-chloro-phenyl)-4-methyl-pentanoyl]-urea]", "melting point": "164 to 165"},
      {"compound": "CNC(=O)NC(=O)C(CC1CCCC1)c1ccc(S(C)(=O)=O)c(C#N)c1", "note": "(stereo not shown) [Example 36, 1-[2-(3-cyano-4-methanesulfonyl-phenyl)-3-cyclopentyl-propionyl]-3-methyl-urea]", "melting point": "237 to 239"},
      {"compound": "CNC(=O)NC(=O)C(CC1CCCC1)c1ccc(S(C)(=O)=O)cc1", "note": "(stereo not shown) [Example 11, 1-[3-cyclopentyl-2-(4-methanesulfonyl-phenyl)-propionyl]-3-methyl urea]", "melting point": "205 to 206"},
      {"compound": "CNC(=O)NC(=O)C(CC1CCCC1)c1ccc(Cl)c([N+](=O)[O-])c1", "note": "(stereo not shown) [Example 34, 1-[2-(4-chloro-3-nitro-phenyl)-3-cyclopentyl-propionyl]-3-methyl-urea]", "melting point": "61 to 64"},
      {"compound": "CNC(=O)NC(=O)C(CC1CCCC1)c1ccc(SC)cc1", "note": "(stereo not shown) [Example 10, 1-[3-cyclopentyl-2-(4-methylsulfanyl-phenyl)-propionyl]-3-methyl urea]", "melting point": "185 to 186"},
      {"compound": "CNC(=O)NC(=O)C(CC1CCCC1)c1cccc(S(=O)(=O)C(F)(F)F)c1", "note": "(stereo not shown) [Example 31, 1-[3-cyclopentyl-2-(3-trifluoromethanesulfonyl-phenyl)-propionyl]-3-methyl-urea]", "melting point": "59 to 62"},
      {"compound": "CNC(=O)NC(=O)C(CC1CCCC1)c1ccc(Br)cc1", "note": "(stereo not shown) [Example 7, 1-[2-(4-bromo-phenyl)-3-cyclopentyl-propionyl]-3-methyl urea]", "melting point": "184 to 186"},
      {"compound": "CNC(=O)NC(=O)C(CC1CCCC1)c1ccc(C#N)cc1", "note": "(stereo not shown) [Example 43, 1-[2-(4-cyano-phenyl)-3-cyclopentyl-propionyl]-3-methyl-urea]", "melting point": "61 to 65"},
      {"compound": "CCCCS(=O)(=O)c1ccc(C(CC2CCCC2)C(=O)NC(=O)NC)cc1", "note": "(stereo not shown) [Example 39, 1-{2-[4-(butane-1-sulfonyl)-phenyl]-3-cyclopentyl-propionyl}-3-methyl-urea]", "melting point": "189 to 191"},
      {"compound": "COC(=O)CNC(=O)NC(=O)C(CC1CCCC1)c1ccc(Cl)c(Cl)c1", "note": "(stereo not shown) [Example 21, {3-[3-cyclopentyl-2-(3,4-dichloro-phenyl)-propionyl]-ureido}-acetic acid methyl ester]", "melting point": "134.5 to 136.6"},
      {"compound": "CNC(=O)NC(=O)C(CC1CCCC1)c1ccccc1", "note": "(stereo not shown) [Example 6, 1-(3-cyclopentyl-2-phenyl-propionyl)-3-methyl-urea]", "melting point": "145 to 147"}
    ]}
  ]
}
